Experimental data published in US10501522B2, “Peptides and combination of peptides for use in immunotherapy against various tumors” (IMMATICS BIOTECHNOLOGIES GMBH, priority 2015, dated 2019).

test system: CD8+ T cells; test: In vitro T-cell priming assay with aAPCs loaded with peptide/MHC and anti-CD28, pMHC multimer readout; format: cell-based, human; conditions: in vitro immunogenicity, HLA-A*02 restricted peptides; percentage of positive wells (among evaluable)
Description: In order to obtain information regarding the immunogenicity of the TUMAPs of the present invention, the inventors performed investigations using an in vitro T-cell priming assay based on repeated stimulations of CD8+ T cells with artificial antigen presenting cells (aAPCs) loaded with peptide/MHC complexes and anti-CD28 antibody.
In order to perform in vitro stimulations by artificial antigen presenting cells loaded with peptide-MHC complex (pMHC) and anti-CD28 antibody, the inventors first isolated CD8+ T cells from fresh HLA-A*02 leukapheresis products via positive selection using CD8 microbeads (Miltenyi Biotec, Bergisch-Gladbach, Germany) of healthy donors obtained from the University clinics Mannheim, Germany, after informed consent. PBMCs and isolated CD8+ lymphocytes were incubated in T-cell medium (TCM) until use consisting of RPMI-Glutamax (Invitrogen, Karlsruhe, Germany) supplemented with 10% heat inactivated human AB serum (PAN-Biotech, Aidenbach, Germany), 100 U/ml Penicillin/100 μg/ml Streptomycin (Cambrex, Cologne, Germany), 1 mM sodium pyruvate (CC Pro, Oberdorla, Germany), 20 μg/ml Gentamycin (Cambrex). 2.5 ng/ml IL-7 (PromoCell, Heidelberg, Germany) and 10 U/ml IL-2 (Novartis Pharma, Nürnberg, Germany) were also added to the TCM at this step. Generation of pMHC/anti-CD28 coated beads, T-cell stimulations and readout was performed in a highly defined in vitro system using four different pMHC molecules per stimulation condition and 8 different pMHC molecules per readout condition.
The purified co-stimulatory mouse IgG2a anti human CD28 Ab 9.3 (Jung et al., 1987) was chemically biotinylated using Sulfo-N-hydroxysuccinimidobiotin as recommended by the manufacturer (Perbio, Bonn, Germany). Beads used were 5.6 μm diameter streptavidin coated polystyrene particles (Bangs Laboratories, Illinois, USA).
pMHC used for positive and negative control stimulations were A*0201/MLA-001 (peptide […] (SEQ ID NO. 289) from modified Melan-A/MART-1) and A*0201/DDX5-001 ([…] from DDX5, SEQ ID NO. 290), respectively.
800.000 beads/200 μl were coated in 96-well plates in the presence of 4×12.5 ng different biotin-pMHC, washed and 600 ng biotin anti-CD28 were added subsequently in a volume of 200 μl. Stimulations were initiated in 96-well plates by co-incubating […] CD8+ T cells with 2×10^5 washed coated beads in 200 μl TCM supplemented with 5 ng/ml IL-12 (PromoCell) for 3 days at 37° C. Half of the medium was then exchanged by fresh TCM supplemented with 80 U/ml IL-2 and incubating was continued for 4 days at 37° C. This stimulation cycle was performed for a total of three times. For the pMHC multimer readout using 8 different pMHC molecules per condition, a two-dimensional combinatorial coding approach was used as previously described (Andersen et al., 2012) with minor modifications encompassing coupling to 5 different fluorochromes. Finally, multimeric analyses were performed by staining the cells with Live/dead near IR dye (Invitrogen, Karlsruhe, Germany), CD8-FITC antibody clone SK1 (BD, Heidelberg, Germany) and fluorescent pMHC multimers. For analysis, a BD LSRII SORP cytometer equipped with appropriate lasers and filters was used. Peptide specific cells were calculated as percentage of total CD8+ cells. Evaluation of multimeric analysis was done using the FlowJo software (Tree Star, Oreg., USA). In vitro priming of specific multimer+ CD8+ lymphocytes was detected by comparing to negative control stimulations.

Row | Substance | Wells positive [%]
1 | 102 (GLYPVTLVGV; listed as Homo sapiens) [compound 102] | + (<20% = +)
2 | 236 (KMSELQTYV; listed as Homo sapiens) [compound 236] | + (<20% = +)
3 | 264 (TLHDQVHLL; listed as Homo sapiens) [compound 264] | + (<20% = +)
4 | 255 (FLMKNSDLYGA; listed as Homo sapiens) [compound 255] | + (<20% = +)
5 | 257 (KLIDHQGLYL; listed as Homo sapiens) [compound 257] | + (<20% = +)
6 | 77 (ALYGNVQQV; listed as Homo sapiens) [compound 77] | + (<20% = +)
7 | 17 (GLLPSAESIKL; listed as Homo sapiens) [compound 17] | + (<20% = +)
8 | 9 (SLITGQDLLSV; listed as Homo sapiens) [compound 9] | + (<20% = +)
9 | 260 (ALNESLVEC; listed as Homo sapiens) [compound 260] | + (<20% = +)
10 | 4 (VLFGELPAL; listed as Homo sapiens) [compound 4] | + (<20% = +)
11 | 39 (YLEDGFAYV; listed as Homo sapiens) [compound 39] | ++++ (≥70% = ++++)
12 | 157 (ILQDGQFLV; listed as Homo sapiens) [compound 157] | + (<20% = +)
13 | 242 (KLQEEIPVL; listed as Homo sapiens) [compound 242] | + (<20% = +)
14 | 89 (SLAETIFIV; listed as Homo sapiens) [compound 89] | + (<20% = +)
15 | 121 (ALYVQAPTV; listed as Homo sapiens) [compound 121] | + (<20% = +)
16 | 246 (ALAGIVTNV; listed as Homo sapiens) [compound 246] | + (<20% = +)
17 | 29 (KMISAIPTL; listed as Homo sapiens) [compound 29] | + (<20% = +)
18 | 263 (SIIEYLPTL; listed as Homo sapiens) [compound 263] | + (<20% = +)
19 | 233 (SLFESLEYL; listed as Homo sapiens) [compound 233] | + (<20% = +)
20 | 267 (YLLDMPLWYL; listed as Homo sapiens) [compound 267] | + (<20% = +)
21 | 27 (GLLGKVTSV; listed as Homo sapiens) [compound 27] | + (<20% = +)
22 | 66 (AMFPDTIPRV; listed as Homo sapiens) [compound 66] | + (<20% = +)
23 | 254 (ALGDKFLLRV; listed as Homo sapiens) [compound 254] | + (<20% = +)
24 | 35 (VIIKGLEEI; listed as Homo sapiens) [compound 35] | + (<20% = +)
25 | 14 (YTFSGDVQL; listed as Homo sapiens) [compound 14] | + (<20% = +)
26 | 50 (ILLSVLHQL; listed as Homo sapiens) [compound 50] | + (<20% = +)
27 | 34 (TLNTLDINL; listed as Homo sapiens) [compound 34] | ++++ (≥70% = ++++)
28 | 97 (KLFEKSTGL; listed as Homo sapiens) [compound 97] | + (<20% = +)
29 | 101 (SLLEVNEASSV; listed as Homo sapiens) [compound 101] | + (<20% = +)

same assay, conditions: percentage of positive donors; HLA-A*02 healthy donor CD8+ T cells, three stimulation cycles

Row | Substance | in vitro immunogenicity: donors
30 | 288 (SLYKGLLSV; listed as Homo sapiens) [compound 288] | ++++ (≥70% = ++++)

same assay, conditions: percentage of positive wells; HLA-A*02 healthy donor CD8+ T cells, three stimulation cycles

Row | Substance | in vitro immunogenicity: wells
31 | 288 (SLYKGLLSV; listed as Homo sapiens) [compound 288] | ++ (20%-49% = ++)
32 | 287 (KIQEILTQV; listed as Homo sapiens) [compound 287] | + (<20% = +)
